Test results from US20230203044A1, “PYRAZOLO[1,5-D][1,2,4]TRIAZINE-5(4H)-ACETAMIDES AS INHIBITORS OF THE NLRP3 INFLAMMASOME” (JANSSEN PHARMACEUTICA NV, priority 2020, published 2023).

Legend:
NLRP3 inflammasome = experiment: PBMC assay: IL-1β in LPS-stimulated human PBMCs (MSD); format: cell-based; details: human PBMCs, 100 ng/ml LPS for 6 hrs, IL-1β in supernatant via MSD, read-out: IL1β IC50
Procedure: The activity of a compound according to the present invention can be assessed by in vitro methods.
Peripheral venous blood was collected from healthy individuals and human peripheral blood mononuclear cells (PBMCs) were isolated from blood by Ficoll-Histopaque (Sigma-Aldrich, A0561) density gradient centrifugation. After isolation, PBMCs were stored in liquid nitrogen for later use. Upon thawing, PBMC cell viability was determined in growth medium (RPMI media supplemented with 10% fetal bovine serum, 1% Pen-Strep and 1% L-glutamine). […] PBMCs were added at a density of 7.5×10^4 cells per well and incubated for 30 min in a 5% CO2 incubator at 37° C. LPS stimulation was performed by addition of 100 ng/ml LPS (final concentration, Invivogen, tlrl-smlps) for 6 hrs followed by collection of cellular supernatant and the analysis of IL-1β (μM) and TNF cytokines levels (μM) via MSD technology according to manufacturers' guidelines (MSD, K151A0H).

TNF = experiment: PBMC assay: TNF cytokine levels in LPS-stimulated human PBMCs (MSD); format: cell-based; details: 100 ng/ml LPS for 6 hrs, TNF in supernatant via MSD
Procedure: Peripheral venous blood was collected from healthy individuals and human peripheral blood mononuclear cells (PBMCs) were isolated from blood by Ficoll-Histopaque (Sigma-Aldrich, A0561) density gradient centrifugation. After isolation, PBMCs were stored in liquid nitrogen for later use. Upon thawing, PBMC cell viability was determined in growth medium (RPMI media supplemented with 10% fetal bovine serum, 1% Pen-Strep and 1% L-glutamine). Compounds were spotted in a 1:3 serial dilution in DMSO and diluted to the final concentration in 30 μl medium in 96 well plates (Falcon, 353072). PBMCs were added at a density of 7.5×10^4 cells per well and incubated for 30 min in a 5% CO2 incubator at 37° C. LPS stimulation was performed by addition of 100 ng/ml LPS (final concentration, Invivogen, tlrl-smlps) for 6 hrs followed by collection of cellular supernatant and the analysis of IL-1β (μM) and TNF cytokines levels (μM) via MSD technology according to manufacturers' guidelines (MSD, K151A0H).
The IC50 values (for IL-1β) and EC50 values (TNF) were obtained on compounds of the invention/examples, and are depicted in the following table: […]

| Structure (SMILES) | IC50 (NLRP3 inflammasome) [µM] | EC50 (TNF) [µM] |
| --- | --- | --- |
| COc1ncc(NC(=O)Cn2nc(C(C)C)n3nc(C4CC4)cc3c2=O)cn1 [Final Cpd 107] | 4.23 | > 10 |
| CC(C)c1nn(CC(=O)Nc2nccc(C(F)(F)F)n2)c(=O)c2cc(C3CC3)nn12 [Final Cpd 98] | > 10 | > 10 |
| CC(C)c1nn(CC(=O)Nc2ccncc2)c(=O)c2cc(C3CC3)nn12 [Final Cpd 118] | 0.11 | > 10 |
| Cc1nccc(NC(=O)Cn2nc(C(C)C)n3nc(C4CC4)cc3c2=O)c1F [Final Cpd 97] | 0.2 | > 10 |
| CC[C@]1(O)C[C@@H](NC(=O)Cn2nc(C(C)C)n3nc(C4CC4)cc3c2=O)C1 [Final Cpd 192, 2-(2-cyclopropyl-7-isopropyl-4-oxopyrazolo[1,5-d][1,2,4]triazin-5(4H)-yl)-N-((1r,3s)-3-ethyl-3-hydroxycyclobutyl)acetamide] | 0.61 | > 10 |
| Cc1cc2c(=O)n(CC(=O)Nc3ccncn3)nc(C(C)C)n2n1 [Final Cpd 17] | 1.1 | > 10 |
| CC(C)c1nn(CC(=O)Nc2ccc(=O)n(C)c2)c(=O)c2cc(C3CC3)nn12 [Final Cpd 28] | 0.38 | > 10 |
| CC(C)c1nn(CC(=O)Nc2ccnnc2)c(=O)c2cc(C3CC3)nn12 [Final Cpd 32] | 0.15 | > 10 |
| Cc1ncc(NC(=O)Cn2nc(C(C)C)n3nc(C4CC4)cc3c2=O)cn1 [Final Cpd 131] | 3.57 | > 10 |
| CC(C)c1nn(CC(=O)N[C@H]2CN(C(=O)OC(C)(C)C)CC[C@H]2O)c(=O)c2cc(C3CC3)nn12 [Final Cpd 34] | 5.66 | > 10 |
| CCc1nn(CC(=O)N[C@H]2C[C@@](C)(O)C2)c(=O)c2cc(I)nn12 [Final Cpd 7] | 0.6 | > 10 |
| CC(C)c1nn(CC(=O)Nc2ccc3nc(C(F)F)cn3c2)c(=O)c2cc(C3CC3)nn12 [Final Cpd 105] | 0.18 | > 10 |
| Cc1cnccc1NC(=O)Cn1nc(C(C)C)n2nc(C3CC3)cc2c1=O [Final Cpd 134] | 0.23 | > 10 |
| CC(C)c1nn(CC(=O)Nc2cc(Br)c3nncn3c2)c(=O)c2cc(C3CC3)nn12 [Final Cpd 95] | 0.37 | > 10 |
| CC(C)c1cc2c(=O)n(CC(=O)N[C@H]3C[C@@](C)(O)C3)nc(C(C)O)n2n1 (stereo partly drawn) [Final Cpd 154] | 3 | > 10 |
| CC(C)c1nn(CC(=O)N[C@H]2C[C@@](C)(O)C2)c(=O)c2cc(C3CC3(F)F)nn12 (stereo partly drawn) [Final Cpd 153] | 0.09 | > 10 |
| COc1ccncc1NC(=O)Cn1nc(C(C)C)n2nc(C3CC3)cc2c1=O [Final Cpd 125] | 9.37 | > 10 |
| CCCCc1nn(CC(=O)Nc2ccc3nncn3c2)c(=O)c2cc(C3CC3)nn12 [Final Cpd 68] | 0.78 | > 10 |
| CC(C)c1nn(CC(=O)N[C@H]2C[C@@](C)(O)C2)c(=O)c2cc(NCC(F)(F)F)nn12 [Final Cpd 41] | 0.88 | > 10 |
| CC(C)c1nn(CC(=O)Nc2ccc3c(C#N)ncn3c2)c(=O)c2cc(C3CC3)nn12 [Final Cpd 108] | 0.54 | > 10 |
| CC(C)c1nn(CC(=O)Nc2ccc3nncn3n2)c(=O)c2cc(C(C)(F)F)nn12 [Final Cpd 176] | 0.082 | > 10 |
| CC(C)c1nn(CC(=O)Nc2ccncn2)c(=O)c2cc(C3CC3)nn12 [Final Cpd 11] | 0.17 | > 10 |
| CCNc1cc2c(=O)n(CC(=O)Nc3ccc4nncn4c3)nc(C(C)C)n2n1 [Final Cpd 75] | 0.024 | 7.04 |

| Structure (SMILES) | IC50 (NLRP3 inflammasome) [µM] | EC50 (TNF) [µM] |
| --- | --- | --- |
| CCc1nn(CC(=O)Nc2ccncn2)c(=O)c2cc(NC(C)=O)nn12 [Final Cpd 184, 2-(2-acetamido-7-ethyl-4-oxopyrazolo[1,5-d][1,2,4]triazin-5(4H)-yl)-N-(pyrimidin-4-yl)acetamide] | > 10 | > 10 |
| CC(C)c1nn(CC(=O)Nc2ccc(C(F)(F)F)nn2)c(=O)c2cc(C3CC3)nn12 [Final Cpd 172, 2-(2-cyclopropyl-7-isopropyl-4-oxopyrazolo[1,5-d][1,2,4]triazin-5(4H)-yl)-N-(6-(trifluoromethyl)pyridazin-3-yl)acetamide] | > 10 | > 10 |
| CC(C)c1nn(CC(=O)Nc2cnccc2Cl)c(=O)c2cc(C3CC3)nn12 [Final Cpd 135] | 6.93 | > 10 |
| CCc1nn(CC(=O)Nc2ccccc2OC)c(=O)c2ccnn12 [Final Cpd 77] | > 10 | > 10 |
| CC(C)c1nn(CC(=O)Nc2ccc3nnc(Cl)n3n2)c(=O)c2cc(C3CC3)nn12 [Final Cpd 170] | 0.55 | > 10 |
| Cc1cc(NC(=O)Cn2nc(C(C)C)n3nc(C4CC4)cc3c2=O)nc(C)n1 [Final Cpd 137] | 1.23 | > 10 |
| CC(C)c1cc2c(=O)n(CC(=O)Nc3ccncn3)nc(C(C)O)n2n1 (stereo not drawn) [Final Cpd 156] | 1.96 | > 10 |
| CC(C)c1nn(CC(=O)Nc2cccnc2Cl)c(=O)c2cc(C3CC3)nn12 [Final Cpd 109] | 1.08 | > 10 |
| Cc1cc(NC(=O)Cn2nc(C(C)C)n3nc(C4CC4)cc3c2=O)c(C)cn1 [Final Cpd 104] | 1.62 | > 10 |
| Cc1cn2nc(NC(=O)Cn3nc(C(C)C)n4nc(C5CC5)cc4c3=O)ccc2n1 [Final Cpd 114] | 0.35 | > 10 |
| Cc1nn(CC(=O)NC2CN([C@H](c3ccccc3)c3cncnc3)C2)c(=O)c2cc(C3CC3)nn12 [Final Cpd 60] | > 10 | > 10 |
| CC(C)c1nn(CC(=O)Nc2cccnc2)c(=O)c2cc(C3CC3)nn12 [Final Cpd 119] | 0.52 | > 10 |
| CC(C)c1nn(CC(=O)Nc2ccncn2)c(=O)c2cc(N(C)C)nn12 [Final Cpd 22] | 1.35 | > 10 |
| CC(C)c1nn(CC(=O)Nc2ccc3nncn3c2)c(=O)c2cc(NCC(F)(F)F)nn12 [Final Cpd 42] | 0.22 | > 10 |
| CC(C)c1nn(CC(=O)Nc2cc(F)[nH]c(=O)c2)c(=O)c2cc(C3CC3)nn12 [Final Cpd 164] | 0.54 | > 10 |
| Cc1nn(CC(=O)NC2(c3ccc(Cl)cc3Cl)CCC2)c(=O)c2cc(C3CC3)nn12 [Final Cpd 63] | 7.89 | > 10 |
| CNc1cc2c(=O)n(CC(=O)Nc3ccncn3)nc(C(C)C)n2n1 [Final Cpd 18, 2-[7-isopropyl-2-(methylamino)-4-oxo-pyrazolo[1,5-d] [1,2,4]triazin-5-yl]—N-pyrimidin-4-yl-acetamide] | 0.16 | > 10 |
| CC(C)c1nn(CC(=O)N[C@H]2C[C@@](C)(O)C2)c(=O)c2cc(I)nn12 [Final Cpd 24] | 0.11 | > 10 |
| CC(C)c1nn(CC(=O)N[C@H]2C[C@@](C)(O)C2)c(=O)c2cc(C(C)(C)C)nn12 [Final Cpd 71] | 0.54 | > 10 |
| Cc1nn(CC(=O)NCc2ccc(F)cc2)c(=O)c2cc(C3CC3)nn12 [Final Cpd 47] | > 10 | > 10 |
| CCc1nn(CC(=O)NC2CCCC2)c(=O)c2ccnn12 [Final Cpd 78] | > 10 | > 10 |
| Cc1nnc2cc(NC(=O)Cn3nc(C(C)C)n4nc(C5CC5)cc4c3=O)ccn12 [Final Cpd 94] | 2.34 | > 10 |
